ChEMBL document CHEMBL4673215, “Discovery of DS42450411 as a potent orally active hepcidin production inhibitor: Design and optimization of novel 4-aminopyrimidine derivatives” (Bioorg Med Chem Lett, 2018)
The source made the active and inactive calls. No cut-off for these calls is given here.

Assays:
[1] = Inhibition of BMP6-stimulated hepcidin production in human HepG2 cells
[2] = molecular target: Dual specificity tyrosine-phosphorylation-regulated kinase 1A (Homo sapiens, UniProt Q13627); assay: Inhibition of DYRK1a (unknown origin)
Mus musculus = assay: Inhibition of IL6-induced hepcidin production in C57BL/6J mouse serum at 30 mg/kg, po administered 30 mins prior to IL6 challenge and measured after 4 hrs; type: functional, organism-based; settings: time 270.0 min
[3] = AUC in C57BL/6J mouse at 30 mg/kg, po; type: ADME, organism-based; set-up: dose 30 mg/kg; settings: in vivo
[4] = Clearance in C57BL/6J mouse at 30 mg/kg, po; type: ADME, organism-based; settings: in vivo
[5] = Half life in C57BL/6J mouse at 30 mg/kg, po; type: ADME, organism-based; settings: in vivo
[6] = Tmax in C57BL/6J mouse at 30 mg/kg, po; type: ADME, organism-based; settings: in vivo
[7] = Protein binding in plasma (unknown origin) assessed as unbound fraction; type: ADME, cell-free
[8] = Cmax in C57BL/6J mouse at 30 mg/kg, po; type: ADME, organism-based; set-up: route oral, dose 30 mg/kg; settings: in vivo
[9] = Lipophilicity, logD of the compound; type: physicochemical; settings: octanol/water
[10] = molecular target: T1, Activin receptor type-1 (Homo sapiens) (UniProt Q04771); assay: Inhibition of ALK2 (unknown origin) at 30 uM
T1 sequence (whole entry): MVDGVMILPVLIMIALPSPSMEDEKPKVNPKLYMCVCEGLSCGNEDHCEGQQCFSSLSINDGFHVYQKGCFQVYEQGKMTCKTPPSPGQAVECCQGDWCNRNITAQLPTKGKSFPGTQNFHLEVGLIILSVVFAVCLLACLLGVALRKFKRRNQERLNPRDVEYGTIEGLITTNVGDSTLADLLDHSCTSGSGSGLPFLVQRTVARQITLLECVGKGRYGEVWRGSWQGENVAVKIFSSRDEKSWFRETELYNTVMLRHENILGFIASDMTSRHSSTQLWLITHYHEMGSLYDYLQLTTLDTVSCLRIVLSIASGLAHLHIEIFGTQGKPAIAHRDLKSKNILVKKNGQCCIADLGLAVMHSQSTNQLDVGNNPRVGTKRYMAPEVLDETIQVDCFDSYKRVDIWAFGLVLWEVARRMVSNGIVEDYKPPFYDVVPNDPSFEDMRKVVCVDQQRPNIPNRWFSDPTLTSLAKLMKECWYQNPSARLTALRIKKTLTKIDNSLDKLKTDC

[11] = molecular target: Dual specificity tyrosine-phosphorylation-regulated kinase 1B (Homo sapiens) (UniProt Q9Y463); assay: Inhibition of DYRK1b (unknown origin) at 0.5 uM
Dual specificity tyrosine-phosphorylation-regulated kinase 1B (Homo sapiens), sequence (Q9Y463 whole entry, looked up): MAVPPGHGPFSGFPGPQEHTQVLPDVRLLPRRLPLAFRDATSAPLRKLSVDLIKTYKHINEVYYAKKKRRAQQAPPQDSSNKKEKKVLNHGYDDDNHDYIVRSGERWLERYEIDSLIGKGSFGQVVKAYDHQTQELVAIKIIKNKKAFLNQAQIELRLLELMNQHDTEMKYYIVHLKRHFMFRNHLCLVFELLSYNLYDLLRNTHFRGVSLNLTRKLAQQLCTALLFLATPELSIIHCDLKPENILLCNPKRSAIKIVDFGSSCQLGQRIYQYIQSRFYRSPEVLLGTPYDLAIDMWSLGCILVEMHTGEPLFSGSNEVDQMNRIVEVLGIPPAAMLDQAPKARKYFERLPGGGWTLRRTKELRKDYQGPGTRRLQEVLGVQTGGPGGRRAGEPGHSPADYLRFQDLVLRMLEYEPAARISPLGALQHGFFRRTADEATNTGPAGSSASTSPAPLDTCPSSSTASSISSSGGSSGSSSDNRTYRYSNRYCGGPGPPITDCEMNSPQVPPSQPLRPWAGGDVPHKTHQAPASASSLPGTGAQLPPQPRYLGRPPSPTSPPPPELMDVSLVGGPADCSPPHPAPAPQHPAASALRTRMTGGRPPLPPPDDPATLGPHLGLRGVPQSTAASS

[12] = molecular target: Dual specificity protein kinase CLK2 (Homo sapiens) (UniProt P49760); assay: Inhibition of CLK2 (unknown origin) at 0.5 uM
Dual specificity protein kinase CLK2 (Homo sapiens), sequence (P49760 whole entry, looked up): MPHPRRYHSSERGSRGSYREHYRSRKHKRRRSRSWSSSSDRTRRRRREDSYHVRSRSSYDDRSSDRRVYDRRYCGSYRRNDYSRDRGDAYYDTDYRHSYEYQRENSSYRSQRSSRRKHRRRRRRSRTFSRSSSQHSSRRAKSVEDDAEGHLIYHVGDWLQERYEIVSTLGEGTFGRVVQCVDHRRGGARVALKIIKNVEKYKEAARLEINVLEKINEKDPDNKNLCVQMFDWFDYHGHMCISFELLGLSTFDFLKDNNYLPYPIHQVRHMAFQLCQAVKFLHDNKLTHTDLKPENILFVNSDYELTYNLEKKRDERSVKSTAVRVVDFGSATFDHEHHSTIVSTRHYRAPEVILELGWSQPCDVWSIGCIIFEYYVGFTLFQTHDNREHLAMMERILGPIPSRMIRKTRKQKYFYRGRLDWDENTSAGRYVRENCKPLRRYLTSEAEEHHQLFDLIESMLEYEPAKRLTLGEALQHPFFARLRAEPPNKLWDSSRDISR

Oc1ncnc2c1C1(CCCC1)Cc1ccccc1-2
IC50 [1]: > 30000 nM

Nc1ncnc2c1CCc1ccccc1-2
IC50 [2]: 57000 nM | IC50 [1]: > 30000 nM

COc1ccc2c(c1)CC(C)(C)c1c-2noc1N
IC50 [1]: > 30000 nM

C=C(c1ccc2c(c1)CC(C)(C)c1c(N)ncnc1-2)[C@H]1C[C@H](N)C1
IC50 [1]: 31 nM

c1ccc2c(c1)CC1(CCCC1)c1cncnc1-2
IC50 [1]: > 30000 nM

C=C(c1ccc2c(c1)CC(C)(C)c1c(N)ncnc1-2)C1CCNCC1
IC50 [1]: 21 nM

Cc1cccc2c1-c1ncnc(N)c1C(C)(C)C2
IC50 [1]: 4700 nM

C=C(c1ccc2c(c1)CC(C)(C)c1c(N)ncnc1-2)[C@H]1CC[C@H](N(C)C)CC1
IC50 [1]: 110 nM

Nc1ncnc2c1C1(CCCC1)Cc1ccccc1-2
IC50 [1]: 4200 nM

C=C(c1ccc2c(c1)CC(C)(C)c1c(N)ncnc1-2)[C@H]1CC[C@H](N)CC1
inhibition (Mus musculus): Active | AUC [3]: 2580 ng·h/mL | CL/F [4]: 191 mL/min/kg | half-life [5]: 4.59 h | Tmax [6]: 1.17 h | fraction unbound [7]: 0.065 | Cmax [8]: 610 ng/mL | logD [9]: 1.6 | inhibition [10]: inactive | IC50 [1]: 32 nM

CC1(C)Cc2cc(OC3CCCNCC3)ccc2-c2ncnc(N)c21 (configuration not stated)
IC50 [1]: 240 nM

CC(=O)N1CCC(Oc2ccc3c(c2)CC(C)(C)c2c(N)ncnc2-3)CC1
IC50 [1]: 760 nM

CCOc1ccc2c(c1)CC(C)(C)c1c(N)ncnc1-2
IC50 [1]: 420 nM

C=C(c1ccc2c(c1)CC(C)(C)c1c(N)ncnc1-2)[C@H]1CC[C@H](NC)CC1
IC50 [1]: 45 nM

CC1(C)Cc2cc(C(=O)C3CCNCC3)ccc2-c2ncnc(N)c21
IC50 [1]: 300 nM

COc1ccc2c(c1)CC(C)(C)c1c(N)nc(C)nc1-2
IC50 [1]: > 5000 nM

Cc1ccc2c(c1)-c1ncnc(N)c1C(C)(C)C2
IC50 [1]: 2800 nM

CC1(C)Cc2cc(OC3CCNC3)ccc2-c2ncnc(N)c21 (configuration not stated)
IC50 [1]: 180 nM

C=C(c1ccc2c(c1)CC(C)(C)c1c(N)ncnc1-2)[C@H]1CCC[C@H](N)C1
IC50 [1]: 42 nM

COc1ccc2c(c1)CC(C)(C)c1c(N)n[nH]c1-2
IC50 [1]: > 30000 nM

COc1ccc2c(c1)CC(C)(C)c1c(N)ncnc1-2
inhibition [11]: Active | inhibition [12]: Active | IC50 [1]: 530 nM

COC(=O)c1ccc2c(c1)CC(C)(C)c1c(N)ncnc1-2
IC50 [1]: 11000 nM

CC(C)Oc1ccc2c(c1)CC(C)(C)c1c(N)ncnc1-2
IC50 [1]: 490 nM

CC(c1ccc2c(c1)CC(C)(C)c1c(N)ncnc1-2)C1CCNCC1 (racemic)
IC50 [1]: 73 nM

CC1(C)Cc2cc(C3CCNCC3)ccc2-c2ncnc(N)c21
IC50 [1]: 810 nM

CC1(C)Cc2cc(OCCO)ccc2-c2ncnc(N)c21
IC50 [1]: 1100 nM

CC1(C)Cc2cc(OC3CCNCC3)ccc2-c2ncnc(N)c21
IC50 [1]: 230 nM

CC1(C)Cc2cc(OCC(=O)O)ccc2-c2ncnc(N)c21
IC50 [1]: 11000 nM

CC1(C)Cc2cc(-c3ccccc3)ccc2-c2ncnc(N)c21
IC50 [1]: 1500 nM

CC1(C)Cc2ccccc2-c2ncnc(N)c21
IC50 [1]: 4500 nM

Cc1cccc2c1CC(C)(C)c1c(N)ncnc1-2
IC50 [1]: 5000 nM

Cc1ccc2c(c1)CC(C)(C)c1c(N)ncnc1-2
IC50 [1]: 600 nM

CNc1ncnc2c1C1(CCCC1)Cc1ccccc1-2
IC50 [1]: > 30000 nM

C=C(c1ccc2c(c1)CC(C)(C)c1c(N)ncnc1-2)C12CC(C1)C2
IC50 [1]: 120 nM

CN(C)c1ncnc2c1C1(CCCC1)Cc1ccccc1-2
IC50 [1]: > 30000 nM
